# Source: patent US20110301122A1, “HETEROAROMATIC COMPOUNDS FOR USE AS HIF INHIBITORS” (BAYER SCHERING PHARMA AKTIENGESELLSCHAFT, priority 2008, published 2011)
# System: luciferase reporter under the control of an HIF-responsive sequence in HCT 116 cells
# Experiment: HIF-luciferase assay
# Assay type: cell-based
# Details: Homo sapiens; HCT 116 cells stably transfected with HIF-responsive luciferase reporter; hypoxia chamber (1% O2), 24 h; luminescence (Bright Glo)
# Method: HCT 116 cells were transfected in a stable manner with a plasmid which contained a luciferase reporter under the control of an HIF-responsive sequence. These cells were sown in microtitre plates [20,000 cells/cavity in RPMI 1640 medium with 10% foetal calf serum (FCS) and 100 μg/ml of hygromycin]. Incubation was carried out overnight under standard conditions (5% CO2, 21% O2, 37° C., moistened). The following morning the cells were incubated with various concentrations of the test substances (0-10 μmol/l) in a hypoxia chamber (1% O2). After 24 h, Bright Glo reagent (Promega, Wisconsin, USA) was added in accordance with the manufacturer'/s instructions, and after 5 min the luminescence was measured. Cells which were incubated under normoxia served as background controls.
row,IC50 [nM],SMILES
1,4,"Cc1cc(-c2nc(-c3ccc(OC(F)(F)F)cc3)no2)nn1Cc1ccc(N)nc1 [Example 135, 5-[(5-Methyl-3-{3-[4-(trifluoromethoxy)phenyl]-1,2,4-oxadiazol-5-yl}-1H-pyrazol-1-yl)methyl]-pyridin-2-amine]"
2,10,Cc1cc(-c2nc(-c3ccc(OC(F)(F)F)cc3)no2)nn1Cc1ccc(NCCO)nc1 [Example 29]
3,0.6,"CNc1ccc(Cn2nc(-c3nc(-c4ccc(C5(C(F)(F)F)CC5)cc4)no3)cc2C)cn1 [Example 183, N-Methyl-5-{[5-methyl-3-(3-{4-[1-(trifluoromethyl)cyclopropyl]phenyl}-1,2,4-oxadiazol-5-yl)-1H-pyrazol-1-yl]methyl}pyridin-2-amine]"
4,0.4,CNc1ccc(Cn2nc(-c3nc(-c4ccc(C(C)(C)C(F)(F)F)cc4)no3)cc2C)cn1 [Example 121]
5,2,"CNc1ccc(Cn2nc(-c3nc(-c4ccc(OC(F)(F)F)c(Cl)c4)no3)cc2C)cn1 [Example 181, 5-[(3-{3-[3-Chloro-4-(trifluoromethoxy)phenyl]-1,2,4-oxadiazol-5-yl}-5-methyl-1H-pyrazol-1-yl)-methyl]-N-methylpyridin-2-amine]"
6,2,"CNc1ccc(Cn2nc(-c3nc(-c4ccc(OC(F)(F)F)c(F)c4)no3)cc2C)cn1 [Example 182, 5-[(3-{3-[3-Fluoro-4-(trifluoromethoxy)phenyl]-1,2,4-oxadiazol-5-yl}-5-methyl-1H-pyrazol-1-yl)-methyl]-N-methylpyridin-2-amine]"
7,8,Cc1cc(-c2nc(-c3ccc(OC(F)(F)F)cc3)no2)nn1Cc1ccc(NCCCO)nc1 [Example 25]
8,9,"Cc1cc(-c2nc(-c3ccc(OC(F)(F)F)cc3)no2)cn1Cc1ccc(NCCO)nc1 [Example 100, 2-({5-[(2-Methyl-4-{3-[4-(trifluoromethoxy)phenyl]-1,2,4-oxadiazol-5-yl}-1H-pyrrol-1-yl)-methyl]pyridin-2-yl}amino)ethanol]"
9,0.6,"CN=S(=O)(c1ccc(-c2noc(-c3cc(C)n(Cc4ccc(NC)nc4)n3)n2)cc1)C(F)(F)F (racemic) [Example 187, N-Methyl-5-{[5-methyl-3-(3-{4-[N-methyl-S-(trifluoromethyl)sulphonimidoyl]phenyl}-1,2,4-oxa-diazol-5-yl)-1H-pyrazol-1-yl]methyl}pyridin-2-amine]"
10,0.3,"CNc1ccc(Cn2nc(-c3nc(-c4ccc(C(C)(C)C)cc4)no3)cc2C)cn1 [Example 170, 5-({3-[3-(4-tert-Butylphenyl)-1,2,4-oxadiazol-5-yl]-5-methyl-1H-pyrazol-1-yl}methyl)-N-methyl-pyridin-2-amine]"
11,1,"CNc1ccc(Cn2nc(-c3nc(-c4ccc(S(=N)(=O)C(F)(F)F)cc4)no3)cc2C)cn1 (racemic) [Example 188, N-Methyl-5-{[5-methyl-3-(3-{4-[S-(trifluoromethyl)sulphonimidoyl]phenyl}-1,2,4-oxadiazol-5-yl)-1H-pyrazol-1-yl]methyl}pyridin-2-amine]"
12,1,"CNc1ccc(Cn2nc(-c3nc(-c4ccc(OC(F)(F)F)cc4)no3)cc2C)cn1 [Example 24, N-Methyl-5-[(5-methyl-3-{3-[4-(trifluoromethoxy)phenyl]-1,2,4-oxadiazol-5-yl}-1H-pyrazol-1-yl)methyl]pyridin-2-amine]"
13,30,Cc1cc(-c2nc(-c3ccc(OC(F)(F)F)cc3)no2)nn1Cc1ccnc(N(CCO)CCO)c1 [Example 33]

# The next lines start with the molecule.
row,SMILES,IC50 [nM]
1,"CCNc1ccc(Cn2nc(-c3nc(-c4ccc([Si](C)(C)C)cc4)no3)cc2C)cn1 [Example 180, N-Ethyl-5-[(5-methyl-3-{3-[4-(trimethylsilyl)phenyl]-1,2,4-oxadiazol-5-yl}-1H-pyrazol-1-yl)-methyl]pyridin-2-amine]",1
2,Cc1ccc(Cc2cc(-c3nc(-c4ccc(C(C)(C)C)cc4)no3)nn2C)cc1 [Example 94],20
3,"CNc1ccc(Cn2nc(-c3nc(-c4ccc(C5(COC)CCC5)cc4)no3)cc2C)cn1 [Example 171, 5-{[3-(3-{4-[1-(Methoxymethyl)cyclobutyl]phenyl}-1,2,4-oxadiazol-5-yl)-5-methyl-1H-pyrazol-1-yl]methyl}-N-methylpyridin-2-amine]",0.4
4,Cc1ccc(Cn2cc(-c3nc(-c4ccc(S(=O)(=O)C(F)(F)F)cc4)no3)cc2C)cc1 [Example 79],4
5,"CNc1ccc(Cn2cc(-c3nc(-c4ccc(C(C)(C)C(F)(F)F)cc4)no3)cc2C)cn1 [Example 196, N-Methyl-5-[(2-methyl-4-{3-[4-(1,1,1-trifluoro-2-methylpropan-2-yl)phenyl]-1,2,4-oxadiazol-5-yl}-1H-pyrrol-1-yl)methyl]pyridin-2-amine]",0.5
6,CNc1ccc(Cn2nc(-c3nc(-c4ccc(C5(F)CCC5)cc4)no3)cc2C)cn1 [Example 133],1.5
7,"CNc1ccc(Cn2nc(-c3nc(-c4ccc([Si](C)(C)C)cc4)no3)cc2C)cn1 [Example 178, N-Methyl-5-[(5-methyl-3-{3-[4-(trimethylsilyl)phenyl]-1,2,4-oxadiazol-5-yl}-1H-pyrazol-1-yl)-methyl]pyridin-2-amine]",0.6
8,Cc1ccc(Cn2cc(-c3nc(-c4ccc(C5(F)COC5)cc4)no3)cc2C)cc1 [Example 81],10
9,"Cc1cc(-c2nc(-c3ccc(C(C)(C)C)cc3)no2)cn1Cc1ccc(Cl)nc1 [Example 72, 5-({4-[3-(4-tert-Butylphenyl)-1,2,4-oxadiazol-5-yl]-2-methyl-1H-pyrrol-1-yl}methyl)-2-chloro-pyridine]",10
10,CNc1ccc(Cn2nc(-c3nc(-c4ccc(C5(OC)CCC5)cc4)no3)cc2C)cn1 [Example 134],2
11,"CNc1ccc(Cn2nc(-c3nc(-c4ccc(C5CCOCC5)cc4)no3)cc2C)cn1 [Example 166, N-Methyl-5-[(5-methyl-3-{3-[4-(tetrahydro-2H-pyran-4-yl)phenyl]-1,2,4-oxadiazol-5-yl}-1H-pyrazol-1-yl)methyl]pyridin-2-amine]",2
12,"CNc1ccc(Cn2nc(-c3nc(-c4ccc(CN(C(C)C)C(C)C)cc4)no3)cc2C)cn1 [Example 184, 5-{[3-(3-{4-[(Diisopropylamino)methyl]phenyl}-1,2,4-oxadiazol-5-yl)-5-methyl-1H-pyrazol-1-yl]-methyl}-N-methylpyridin-2-amine]",2
